# In US20240197852A1, “PSORALEN-I[…] G[…] AND METHODS THEREOF” (Wake Forest University Health Sciences, priority 2021, published 2024):
# Columns and labels:
# E. coli strain H10407 [1] = assay: 8-MOP and UVA crosslinking of E. coli, overnight growth in LB broth; format: cell-based; settings: 50, 60, 70, or 80 μg/ml 8-MOP; 1 Joule/cm^2 or 7 Joules/cm^2 UVA
# Procedure: (§1) Early experiments on the effects of different doses of 8-MOP, AMT, and of UV on bacterial cells were done in E. coli strain H10407 due to its relative ease and speed of growth. H10407 was diluted 1:500 in LB and grown for 5 hours at 37 °C in a shaker. Psoralen inactivation was performed as described for GC. Bacterial cells were washed and inoculated into LB broth or plated onto LB agar to measure overnight growth as an indication of the presence of residual CFU.
# Inactivation of E. coli with AMT+UVA light: Other labs had previously reported the use of the psoralen derivatives 8-MOP or S-59/psoralen and UVA light to inactivate bacterial cultures containing DNA repair mutations. In order to determine if a bacterial culture not containing a DNA repair mutation with 8-MOP and UVA crosslinking could be inactivated, E. coli strain H10407 was used. Multiple separate cultures of this strain were treated with 50, 60, 70, or 80 μg/ml 8-MOP and treated with 1 Joule/cm^2 or 7 Joules/cm^2 UVA light and then diluted into LB broth and grown overnight. If even one cell in each culture survived the treatment with 8-MOP and UVA, it was expected to see growth in the overnight culture. Control cultures that received UVA but no 8-MOP, 8-MOP but no UVA, and no UVA or 8-MOP were also included. Heat killed cultures were diluted and grown overnight as a negative control.
# E. coli strain H10407 [2] = assay: AMT and UVA crosslinking of E. coli (one round), overnight growth in LB broth; format: cell-based
# Procedure: (§2) Psoralen Inactivation: GC strains were grown overnight on GC agar plates. Overnight growth (between 16 and 18 hours) was resuspended in 5 mls of GCP and OD600 was adjusted to 1.0. Cells were diluted 2:25 in 5 mls GCP supplemented with sodium bicarbonate and Isovitalex and grown at 37 °C in the shaker for 7 hours at which time AMT was added and the cultures were incubated in the shaker for another hour. All bacterial cultures were then moved into 6 well cell culture plates and treated with 1 Joule/cm^2 UV light using an Analytik Jena Crosslinker with UVA light source (365 nm) (model #CL-1000L, Upland, CA). Cultures were returned to tubes and a second dose of AMT was added. Cultures were shaken for 1 hour at 37 °C and then crosslinked again at the same UV dose. Samples were washed in PBS and then plated on GC agar and incubated for two days at 37 °C and 5% CO2 to measure growth as an indication of the presence of residual CFU.
# as §1
# We then used the psoralen derivative 4-aminomethyl-4,5′, 8-trimethylpsoralen (AMT). Multiple separate cultures of the E. coli strain H10407 were treated with doses of psoralen derivative 4-aminomethyl-4,5′, 8-trimethylpsoralen (AMT) ranging from 0 to 60 μg/ml and treated with 1 Joule/cm^2, 7 Joules/cm^2, or 10 Joules/cm^2 UVA light and then diluted into LB broth and grown overnight. […] Control cultures that received no treatment always grew up overnight as did cultures that only received AMT and no UVA or UVA treatment with no AMT. Heat killed cultures never grew up overnight. […] (See Table 1). Cultures that had no growth were left to grow for 3 more days to make sure that no growth came up later.
# GC strain FA1090 [3] = assay: two rounds of AMT and UVA on GC, plating on GC agar for survivors; format: cell-based, Neisseria gonorrhoeae; settings: thirty 1 ml cultures, approximately 3×10^10 cells; 20 μg/ml AMT and 1 Joule/cm^2 UVA two times
# Procedure: as §2
# To get consistent inactivation of GC we treated FA1090 with two rounds of AMT and UVA. Thirty separate 1 ml cultures of FA1090 were given 20 μg/ml AMT and irradiated with 1 Joule/cm^2 UVA two times and plated onto 30 GC agar plates and grown for two days.
# E. coli strain H10407 [4] = assay: two doses of AMT and two rounds of UVA on E. coli, plating for surviving CFU; format: cell-based; settings: for CFUs of treated cells / Percent Survival: 1 Joule/cm^2 two times
# Procedure: as §2, §1
# The desire was a method to inactivate the culture consistently with AMT. E. coli strain H10407 was treated with AMT and UVA as before, but then immediately retreated the same culture once again with AMT at the same dosage, allowing the culture to shake for 1 hour, and then crosslinking it a second time and plating the cells to see which cultures would still have surviving cells capable of growth. By plating the cells and comparing to the CFUs of an untreated culture we were able to determine a percentage of surviving cells. Multiple cultures were treated at every drug dose. (See Table 2)
# Thirty separate 1 ml cultures of H10407 were grown, treated with AMT at a dose of 40 μg/ml two times, and given 1 Joule/cm^2 of UVA two times and allowed to grow overnight on LB plates. […] LB plates were kept for multiple days to ensure there was no later growth.
# GC strain FA1090 [5] = assay: one round of AMT and UV light crosslinking of GC, plating, percent cell survival; format: cell-based, Neisseria gonorrhoeae; settings: 1 Joule/cm^2
# Procedure: as §2
# (§3) Evaluating the use of a GC uvrB mutants: In order to examine the effect of a mutation in the uvrB locus that affects DNA repair GC strains FA1090 and its derivatives 1-81-S2 (uvrB:kan #4 Opa+) and 1-81-S2 (uvrB:kan #9) were tested. uvrB mutants have been used by other labs to reduce the amount of 8-MOP or S-59 needed to inactivate bacterial cells and to therefore leave them with higher metabolic activity (KBMA). FA1090 and mutant strains were treated with varying doses of AMT, grown for one hour at 37 °C, and then irradiated with UVA at 1 Joule/cm^2. The entire culture was washed and plated onto a single plate. Surviving colonies were counted and compared to live cultures to determine percent cell survival. Multiple cultures of each strain were tested at each dosage level. (see Table 3).
# [6] = test system: FA1090 uvrB mutant strain 1-81-S2 (uvrB:kan #9); assay: one round of AMT and UV light crosslinking of GC uvrB mutant, plating, percent cell survival; format: cell-based, Neisseria gonorrhoeae; settings: 1 Joule/cm^2
# Procedure: as §2, §3
# [7] = test system: FA1090 uvrB mutant strain 1-81-S2 (uvrB:kan #4 Opa+); assay: as above; format: cell-based, Neisseria gonorrhoeae; settings: 1 Joule/cm^2
# Procedure: as §2, §3
structure (smiles),measurement,setting,value
"COc1c2occc2cc2ccc(=O)oc12 [8-MOP, 8-methoxypsoralen]",inactivation of cultures (overnight growth),E. coli strain H10407 [1],not inactivated
"Cc1oc2c(C)c3oc(=O)cc(C)c3cc2c1CN [AMT, 4-aminomethyl-4,5′, 8-trimethylpsoralen]",Percentage of cultures inactivated,"E. coli strain H10407 [2]; AMT 20 ug/ml, 1 Joule/cm^2",0%
same,number of cultures inactivated (no overnight growth) / total cultures treated,"E. coli strain H10407 [2]; AMT 20 ug/ml, 1 Joule/cm^2",0/5
same,Percentage of cultures inactivated,"E. coli strain H10407 [2]; AMT 20 ug/ml, 7 Joules/cm^2",67%
same,number of cultures inactivated (no overnight growth) / total cultures treated,"E. coli strain H10407 [2]; AMT 20 ug/ml, 7 Joules/cm^2",2/3
same,Percentage of cultures inactivated,"E. coli strain H10407 [2]; AMT 30 ug/ml, 1 Joule/cm^2",0%
same,number of cultures inactivated (no overnight growth) / total cultures treated,"E. coli strain H10407 [2]; AMT 30 ug/ml, 1 Joule/cm^2",0/5
same,Percentage of cultures inactivated,"E. coli strain H10407 [2]; AMT 30 ug/ml, 7 Joules/cm^2",33%
same,number of cultures inactivated (no overnight growth) / total cultures treated,"E. coli strain H10407 [2]; AMT 30 ug/ml, 7 Joules/cm^2",1/3
same,Percentage of cultures inactivated,"E. coli strain H10407 [2]; AMT 40 ug/ml, 1 Joule/cm^2",60%
same,number of cultures inactivated (no overnight growth) / total cultures treated,"E. coli strain H10407 [2]; AMT 40 ug/ml, 1 Joule/cm^2",3/5
same,Percentage of cultures inactivated,"E. coli strain H10407 [2]; AMT 50 ug/ml, 1 Joule/cm^2",82%
same,number of cultures inactivated (no overnight growth) / total cultures treated,"E. coli strain H10407 [2]; AMT 50 ug/ml, 1 Joule/cm^2",9/11
same,Percentage of cultures inactivated,"E. coli strain H10407 [2]; AMT 50 ug/ml, 7 Joules/cm^2",78%
same,number of cultures inactivated (no overnight growth) / total cultures treated,"E. coli strain H10407 [2]; AMT 50 ug/ml, 7 Joules/cm^2",7/9
same,Percentage of cultures inactivated,"E. coli strain H10407 [2]; AMT 50 ug/ml, 10 Joules/cm^2",80%
same,number of cultures inactivated (no overnight growth) / total cultures treated,"E. coli strain H10407 [2]; AMT 50 ug/ml, 10 Joules/cm^2",12/15
same,Percentage of cultures inactivated,"E. coli strain H10407 [2]; AMT 60 ug/ml, 1 Joule/cm^2",80%
same,number of cultures inactivated (no overnight growth) / total cultures treated,"E. coli strain H10407 [2]; AMT 60 ug/ml, 1 Joule/cm^2",4/5
same,inactivation of cultures (overnight growth),"E. coli strain H10407 [2]; AMT up to 60 μg/ml, 1, 7 or 10 Joules/cm^2 UVA, one round",sometimes completely inactivated
same,"survivors after plating on GC agar, two days",GC strain FA1090 [3],No survivors were detected
same,CFUs of treated cells,E. coli strain H10407 [4]; AMT 10 ug/ml two doses,79
same,Percent Survival,E. coli strain H10407 [4]; AMT 10 ug/ml two doses,2.6 × 10^−6%
same,CFUs of treated cells,E. coli strain H10407 [4]; AMT 30 ug/ml two doses,2
same,Percent Survival,E. coli strain H10407 [4]; AMT 30 ug/ml two doses,5 × 10^−8%
same,CFUs of treated cells,E. coli strain H10407 [4]; AMT 35 ug/ml two doses,55
same,Percent Survival,E. coli strain H10407 [4]; AMT 35 ug/ml two doses,6.1 × 10^−7%
same,CFUs of treated cells,E. coli strain H10407 [4]; AMT 40 ug/ml two doses,0
same,Percent Survival,E. coli strain H10407 [4]; AMT 40 ug/ml two doses,0%
same,surviving cells capable of growth,"E. coli strain H10407 [4]; thirty 1 ml cultures, approximately 3.7×10^10 cells, 40 μg/ml AMT and 1 Joule/cm^2 UV two times",no cells still capable of growth
same,Percent Cell Survival,GC strain FA1090 [5]; AMT 2 ug/ml,7.85 × 10^−6%
same,Percent Cell Survival,GC strain FA1090 [5]; AMT 5 ug/ml,1.23 × 10^−6%
same,Percent Cell Survival,GC strain FA1090 [5]; AMT 7 ug/ml,0%
same,Percent Cell Survival,GC strain FA1090 [5]; AMT 10 ug/ml,0%
same,Percent Cell Survival,GC strain FA1090 [5]; AMT 30 ug/ml,0%
same,Percent Cell Survival,GC strain FA1090 [5]; AMT 50 ug/ml,0%
same,Percent Cell Survival,GC strain FA1090 [5]; AMT 70 ug/ml,2.56 × 10^−7%
same,Percent Cell Survival,GC strain FA1090 [5]; AMT 100 ug/ml,0%
same,Percent Cell Survival,[6]; AMT 2 ug/ml,7.23 × 10^−7%
same,Percent Cell Survival,[6]; AMT 5 ug/ml,4.0 × 10^−7%
same,Percent Cell Survival,[6]; AMT 7 ug/ml,6.3 × 10^−8%
same,Percent Cell Survival,[6]; AMT 10 ug/ml,0%
same,Percent Cell Survival,[6]; AMT 30 ug/ml,0%
same,Percent Cell Survival,[6]; AMT 50 ug/ml,0%
same,Percent Cell Survival,[6]; AMT 70 ug/ml,0%
same,Percent Cell Survival,[6]; AMT 100 ug/ml,0%
same,Percent Cell Survival,[7]; AMT 2 ug/ml,5.56 × 10^−8%
same,Percent Cell Survival,[7]; AMT 5 ug/ml,0%
same,Percent Cell Survival,[7]; AMT 7 ug/ml,0%
same,Percent Cell Survival,[7]; AMT 10 ug/ml,0%
same,Percent Cell Survival,[7]; AMT 30 ug/ml,0%
same,Percent Cell Survival,[7]; AMT 50 ug/ml,0%
same,Percent Cell Survival,[7]; AMT 70 ug/ml,1.11 × 10^−6%
same,Percent Cell Survival,[7]; AMT 100 ug/ml,0%
